Values of other authors as cited in patent publication US12194028B2 (Slayback Pharma LLC, priority 2022, dated 2025).

Structure (SMILES): COc1ccc(-n2nc(C(N)=O)c3c2C(=O)N(c2ccc(N4CCCCC4=O)cc2)CC3)cc1 [apixaban, 1-(4-methoxyphenyl)-7-oxo-6-[4-(2-oxopiperidin-1-yl)phenyl]-4,5-dihydropyrazolo [3,4-c] pyridine-3-carboxamide]
- aqueous solubility (in water): 40 to 50 µg/mL
- solubility (throughout physiological pH range of 1.0-8.0): very low
